“And” between values parts separate entries of the source, which are not always exact repeats. Identical values can stand only once.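 Growth conditions: 96-well plates. Treatment: test compound, 48 hours, 5 concentrations. Analysis: linear interpolation between bracketing concentrations; unreached endpoints set to highest concentration. TGI: total growth inhibition.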
Legend:
Experiment in all cases: NCI-60 cell line screen, 48 h
UACC-62 melanoma = system: UACC-62 melanoma
NCI-H522 lung = system: NCI-H522 lung
LOX IMVI melanoma = system: LOX IMVI melanoma
SW-620 colon = system: SW-620 colon
UO-31 renal = system: UO-31 renal
MCF7 breast = system: MCF7 breast
786-0 renal = system: 786-0 renal
NCI-H226 lung = system: NCI-H226 lung
CAKI-1 renal = system: CAKI-1 renal
SNB-19 CNS = system: SNB-19 CNS
RXF 393 renal = system: RXF 393 renal
NCI/ADR-RES ovarian = system: NCI/ADR-RES ovarian
SF-268 CNS = system: SF-268 CNS
IGROV1 ovarian = system: IGROV1 ovarian

| SMILES | TGI (UACC-62 melanoma) | TGI (NCI-H522 lung) | TGI (LOX IMVI melanoma) | TGI (SW-620 colon) | TGI (UO-31 renal) | TGI (MCF7 breast) | TGI (786-0 renal) | TGI (NCI-H226 lung) | TGI (CAKI-1 renal) | TGI (SNB-19 CNS) | TGI (RXF 393 renal) | TGI (NCI/ADR-RES ovarian) | TGI (SF-268 CNS) | TGI (IGROV1 ovarian) |
| --- | --- | --- | --- | --- | --- | --- | --- | --- | --- | --- | --- | --- | --- | --- |
| CO[C@H]1O[C@@H]2CO[C@@H](c3ccccc3)O[C@H]2C[C@]12CCC/C=C\CO2 | > 75 µM | 23.6 µM | 22.9 µM | 61.1 µM | 25.2 µM | 35.7 µM | 26.2 µM | 50.9 µM | > 75 µM | > 75 µM | 28.3 µM | 73.6 µM | 32.1 µM |  |
| NNC(=O)c1n[nH]nc1SSc1n[nH]nc1C(=O)NN | > 100 µM | > 100 µM | > 100 µM | > 100 µM | > 100 µM | > 100 µM | > 100 µM | > 100 µM | > 100 µM | > 100 µM | > 100 µM | > 100 µM | > 100 µM | > 100 µM |
| O=C(/C=C/c1ccc(O)c(O)c1)OCCOC(=O)/C=C/c1ccc(O)c(O)c1 | 35.1 µM | 46.9 µM | 93.3 µM | > 100 µM | 47.5 µM | 90.9 µM | > 100 µM | 96.3 µM | > 100 µM | > 100 µM | 51.9 µM | > 100 µM | > 100 µM | > 100 µM |
| CC/C(Cl)=N\OC(=O)Nc1ccc(C#N)cc1 | 28.4 µM | 2.82 µM | 15.9 µM | 11.7 µM | 31 µM | 29.6 µM | 23.5 µM | 30.9 µM | 9.32 µM | > 100 µM | 21.4 µM | 18.3 µM | 33 µM | 30.6 µM |
| Cc1ccc(C2=Nc3c(N)nc(N)nc3NC(c3ccccc3)C2)cc1 (stereo unspecified) | 22.7 µM and 26 µM | 16 µM and 30.9 µM | 23 µM and 28 µM | 15.2 µM and 16.2 µM | 25.2 µM and 25.6 µM | 22.5 µM and 21.5 µM | 24.3 µM and 31.1 µM | 29.3 µM and 36.7 µM | 24.7 µM and 29.5 µM | 27 µM and 32.9 µM | 25.2 µM and 21.3 µM | 16.1 µM and 18.2 µM | 29.9 µM and 31.8 µM | 21.2 µM and 21.6 µM |
| O=C1OC(CN2CCN(c3ccccc3)CC2)CN1C(=S)Nc1ccccc1 (stereo unspecified) | > 100 µM | > 100 µM | > 100 µM | > 100 µM | > 100 µM | > 100 µM | > 100 µM | > 100 µM | > 100 µM | > 100 µM | > 100 µM | > 100 µM | > 100 µM | > 100 µM |
| CC(C)(C)OC(=O)NC(Cc1ccc([N+](=O)[O-])cc1)C(=O)NC(CCCCNC(=O)OCc1ccccc1)C(=O)ON1C(=O)CCC1=O (stereo unspecified) | > 100 µM | > 100 µM | > 100 µM | > 100 µM | > 100 µM | > 100 µM | > 100 µM | > 100 µM | > 100 µM | > 100 µM | > 100 µM | > 100 µM | > 100 µM | > 100 µM |
| CC(C)[Si](OC1=CCCCCC12C(=O)N(C)c1ccccc12)(C(C)C)C(C)C (stereo unspecified) | 59.2 µM | 33.7 µM | 35.7 µM | 35.6 µM | 36.7 µM | 34 µM | 37.7 µM | 39 µM | 40.7 µM | 29.5 µM | 21.8 µM | 42.8 µM | 48.1 µM | 62.9 µM |
